Like-named read-outs stand apart in the source and are kept apart here.
Columns and labels:
[1] = molecular target: HDAC1 (Homo sapiens, UniProt Q13547); assay: HDAC biochemical activity measurement (fluorescent substrate deacetylation); conditions: Table 3, column C; read-out: IC50 HDAC1, C (six-membered ring with substituents);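 also: fluorogenic acetyl-lysine substrate (20 µM) deacetylated by HDAC1, then developer releases fluorophore read at 360 nm excitation and 460 nm emission, inhibitor incubated 30 min at 37 °C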
Chain of HDAC1 (Q13547 whole entry, species assumed): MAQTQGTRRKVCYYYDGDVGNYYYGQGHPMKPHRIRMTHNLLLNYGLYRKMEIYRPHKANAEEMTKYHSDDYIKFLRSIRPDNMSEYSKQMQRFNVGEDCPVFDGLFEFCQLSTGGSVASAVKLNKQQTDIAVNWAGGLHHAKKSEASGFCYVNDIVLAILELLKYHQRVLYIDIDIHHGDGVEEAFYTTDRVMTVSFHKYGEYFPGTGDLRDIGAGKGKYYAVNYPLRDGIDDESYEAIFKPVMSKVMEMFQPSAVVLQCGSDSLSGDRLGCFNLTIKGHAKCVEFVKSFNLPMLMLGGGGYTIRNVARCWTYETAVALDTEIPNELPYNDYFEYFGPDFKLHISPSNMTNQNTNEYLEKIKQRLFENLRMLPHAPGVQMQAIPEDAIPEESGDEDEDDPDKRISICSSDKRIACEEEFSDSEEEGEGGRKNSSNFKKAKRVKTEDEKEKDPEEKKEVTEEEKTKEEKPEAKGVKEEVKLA

[2] = system: Huh-7 (human hepatoma cells); assay: MTT cancer cell growth inhibition; assay type: cell-based; conditions: Homo sapiens, Huh-7, 72 h, MTT, 72 hours incubation, Huh-7 cells; read-out: GI50 Huh-7
Procedure, shortened: (§1)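 MTT viability, 570 nm, GI50. Cells 1500/well; compound 72 h at final 10^−5–10^−10 M in triplicate.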

[3] = system: A549 (human lung cancer cells); assay: MTT cancer cell growth inhibition; assay type: cell-based; conditions: Homo sapiens, A549, 72 h, MTT, 72 hours incubation, read-out: GI50 A54
Procedure, shortened: as §1

[4] = system: KBM-5 (human chronic myelogenous leukemia); assay: MTT cancer cell growth inhibition; assay type: cell-based; conditions: Homo sapiens, KBM5, 72 h, MTT, 72 hours incubation, KBM-5 cells; read-out: GI50 KBM-5
Procedure, shortened: as §1

[5] = system: Hela (human cervical cancer cells); assay: MTT cancer cell growth inhibition; assay type: cell-based; conditions: Homo sapiens, HeLa, 72 h, MTT, 72 hours incubation, read-out: GI50 Hela
Procedure, shortened: as §1

[6] = system: HCC827 (human non-small cell lung cancer cells); assay: MTT cancer cell growth inhibition; assay type: cell-based; conditions: Homo sapiens, HCC827, 72 h, MTT, 72 hours incubation, HCC827 cells; read-out: GI50 HCC827
Procedure, shortened: as §1

[7] = system: BGC-823 (human gastric cancer cells); assay: MTT cancer cell growth inhibition; assay type: cell-based; conditions: Homo sapiens, BGC-823, 72 h, MTT, 72 hours incubation, read-out: GI50 BG
Procedure, shortened: as §1

[8] = system: lncap (prostate cancer cells); assay: MTT cancer cell growth inhibition; assay type: cell-based; conditions: Homo sapiens, LNCaP, 72 h, MTT, 72 hours incubation, read-out: GI50 lnca
Procedure, shortened: as §1

[9] = system: SGC-7901 (human gastric cancer cells); assay: MTT cancer cell growth inhibition; assay type: cell-based; conditions: Homo sapiens, SGC-7901, 72 h, MTT, 72 hours incubation, SGC-7901 cells; read-out: GI50 SGC-7901
Procedure, shortened: as §1

[10] = system: U937 (human leukemia cells); assay: MTT cancer cell growth inhibition; assay type: cell-based; conditions: Homo sapiens, U-937, 72 h, MTT, 72 hours incubation, read-out: GI50 U93
Procedure, shortened: as §1

[11] = system: DU145 (human prostate cancer cells); assay: MTT cancer cell growth inhibition; assay type: cell-based; conditions: Homo sapiens, DU-145, 72 h, MTT, 72 hours incubation, read-out: GI50 Du1
Procedure, shortened: as §1

[12] = system: MDA-MB-231 (breast cancer cells); assay: MTT cancer cell growth inhibition; assay type: cell-based; conditions: Homo sapiens, MDA-MB-231, 72 h, read-out: GI50 MDA-MB-231, MTT, 72 hours incubation, MDA-MB-231 cells
Procedure, shortened: as §1

[13] = system: N-87 (human gastric cancer cells); assay: MTT cancer cell growth inhibition; assay type: cell-based; conditions: Homo sapiens, 72 h, MTT, 72 hours incubation, N-87 cells; read-out: GI50 N-87
Procedure, shortened: as §1

[14] = system: K562 (human leukemia cells); assay: MTT cancer cell growth inhibition; assay type: cell-based; conditions: Homo sapiens, K562, 72 h, MTT, 72 hours incubation, K562 cells; read-out: GI50 K562
Procedure, shortened: as §1

[15] = system: MOLT-4 (human acute lymphoblastic leukemia cells); assay: MTT cancer cell growth inhibition; assay type: cell-based; conditions: Homo sapiens, MOLT-4, 72 h, MTT, 72 hours incubation, read-out: GI50 Mol
Procedure, shortened: as §1

[16] = system: KBM5-T315I (human chronic myelogenous leukemia); assay: MTT cancer cell growth inhibition; assay type: cell-based; conditions: Homo sapiens, 72 h, MTT, 72 hours incubation, KBM5-T315I cells; read-out: GI50 KBM5-T315I
Procedure, shortened: as §1

[17] = system: HT1080 (human fibrosarcoma cells); assay: MTT cancer cell growth inhibition; assay type: cell-based; conditions: Homo sapiens, HT-1080, 72 h, MTT, 72 hours incubation, read-out: GI50 HT1
Procedure, shortened: as §1

[18] = system: H1975 (non-small cell lung adenocarcinoma); assay: MTT cancer cell growth inhibition; assay type: cell-based; conditions: Homo sapiens, NCI-H1975, 72 h, MTT, 72 hours incubation, H1975 cells; read-out: GI50 H1975
Procedure, shortened: as §1

[19] = system: MCF-7 (human breast cancer cells); assay: MTT cancer cell growth inhibition; assay type: cell-based; conditions: Homo sapiens, MCF7, 72 h, 72 hours incubation, read-out: GI50 MCF
Procedure, shortened: as §1

[20] = system: Bel-7402 (human hepatoma cells); assay: MTT cancer cell growth inhibition; assay type: cell-based; conditions: Homo sapiens, Bel-7402, 72 h, MTT, 72 hours incubation, Bel-7402 cells; read-out: GI50 Bel-7402
Procedure, shortened: as §1

[21] = system: PANC-1 (Pac-1, human pancreatic cancer cells); assay: MTT cancer cell growth inhibition; assay type: cell-based; conditions: Homo sapiens, PANC-1, 72 h, MTT, 72 hours incubation, read-out: GI50 PAN
Procedure, shortened: as §1

[22] = molecular target: T1, HDAC7 (Homo sapiens, UniProt Q8WUI4); assay: HDAC biochemical activity measurement (fluorescent substrate deacetylation);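 also: fluorogenic deacetylation assay using acetyl-lysine substrate at 20 µM, enzyme and compound incubated 30 min at 37 °C, then developer added, fluorescence read at 360/460 nm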; conditions: HDAC7; 37° C. 30 minutes
T1 sequence (Q8WUI4 1-952): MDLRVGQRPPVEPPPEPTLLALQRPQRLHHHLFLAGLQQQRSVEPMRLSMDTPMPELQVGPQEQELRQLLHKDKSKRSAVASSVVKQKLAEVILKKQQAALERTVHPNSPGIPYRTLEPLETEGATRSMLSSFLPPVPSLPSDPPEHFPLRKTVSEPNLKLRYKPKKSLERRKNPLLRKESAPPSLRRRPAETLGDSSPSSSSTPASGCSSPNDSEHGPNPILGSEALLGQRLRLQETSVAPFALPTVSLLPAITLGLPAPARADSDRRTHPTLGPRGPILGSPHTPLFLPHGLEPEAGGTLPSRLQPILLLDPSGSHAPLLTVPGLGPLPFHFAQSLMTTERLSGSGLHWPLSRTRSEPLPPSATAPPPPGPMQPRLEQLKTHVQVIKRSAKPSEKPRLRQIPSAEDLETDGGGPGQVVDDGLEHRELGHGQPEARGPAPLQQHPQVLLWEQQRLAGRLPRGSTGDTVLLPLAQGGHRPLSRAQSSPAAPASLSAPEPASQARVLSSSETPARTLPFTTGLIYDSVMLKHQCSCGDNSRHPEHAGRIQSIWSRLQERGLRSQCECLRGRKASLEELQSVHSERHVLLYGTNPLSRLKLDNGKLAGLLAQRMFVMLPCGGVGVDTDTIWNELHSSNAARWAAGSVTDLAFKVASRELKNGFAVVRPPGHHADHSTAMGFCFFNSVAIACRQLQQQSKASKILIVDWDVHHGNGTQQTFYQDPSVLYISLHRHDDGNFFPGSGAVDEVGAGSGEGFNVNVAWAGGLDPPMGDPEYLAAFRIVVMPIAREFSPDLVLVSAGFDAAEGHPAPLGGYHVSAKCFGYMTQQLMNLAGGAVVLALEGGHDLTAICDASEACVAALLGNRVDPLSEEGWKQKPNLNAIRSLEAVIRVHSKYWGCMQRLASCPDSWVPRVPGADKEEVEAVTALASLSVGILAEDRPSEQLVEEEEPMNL

SMILES	GI50 [2]	GI50 [3]	GI50 [4]	GI50 [5]	GI50 [6]	GI50 [7]	GI50 [8]	GI50 [9]	GI50 [10]	GI50 [11]	GI50 [12]	GI50 [13]	GI50 [14]	GI50 [15]	GI50 [16]	GI50 [17]	GI50 [18]	GI50 [19]	GI50 [20]	IC50 HDAC7 [22]	further results
C/C=C1\NC(=O)c2cc(F)cc(n2)CNC(=O)C[C@@H](/C=C/CCSC(C)=O)OC(=O)[C@H](C)NC1=O [Compound 64]	46 nM	30 nM	82 nM	80 nM	51 nM	30 nM	40 nM	35 nM	30 nM	20 nM	46 nM	30 nM	26 nM	40 nM	22 nM	50 nM	38 nM	20 nM	51 nM		IC50 [1]: 24 nM; GI50 [21]: 50 nM
C/C=C1\NC(=O)c2ccc(SC)c(n2)CNC(=O)C[C@@H](/C=C/CCS)OC(=O)[C@H](C(C)C)NC1=O [Compound 228]	35 nM		62 nM		17 nM			12 nM			69 nM	35 nM	62 nM		33 nM		48 nM		56 nM	no activity	GI50 ([3]; A549 cells): 30 nM; GI50 ([5]; Hela cells): 10 nM; GI50 ([7]; BGC-823 cells): 60 nM; GI50 ([8]; lncap cells): 20 nM; GI50 ([10]; U937 cells): 40 nM; GI50 ([11]; DU145 cells): 20 nM; GI50 ([15]; MOLT-4 cells): 50 nM; GI50 ([17]; HT1080 cells): 40 nM; GI50 ([19]; MCF-7 cells): 30 nM; GI50 ([21]; PANC-1 cells): 30 nM
C/C=C1\NC(=O)c2ccc(F)c(n2)CNC(=O)C[C@@H](/C=C/CCS)OC(=O)[C@H](Cc2ccc(O)cc2)NC1=O [Compound 130]	41 nM	70 nM	23 nM	130 nM	54 nM	50 nM	20 nM	42 nM	30 nM	30 nM	38 nM	58 nM	28 nM	30 nM	11 nM	100 nM	42 nM	70 nM	32 nM	no activity	GI50 [21]: 40 nM
C/C=C1\NC(=O)c2nc(ccc2SC)CNC(=O)C[C@@H](/C=C/CCSC(=O)CCCCCCC)OC(=O)[C@H](Cc2ccccc2)NC1=O [Compound 189]	21 nM		45 nM		41 nM			23 nM			38 nM	45 nM	32 nM		43 nM		41 nM		36 nM	no activity	GI50 ([3]; A549 cells): 30 nM; GI50 ([5]; Hela cells): 40 nM; GI50 ([7]; BGC-823 cells): 10 nM; GI50 ([8]; lncap cells): 50 nM; GI50 ([10]; U937 cells): 40 nM; GI50 ([11]; DU145 cells): 30 nM; GI50 ([15]; MOLT-4 cells): 50 nM; GI50 ([17]; HT1080 cells): 110 nM; GI50 ([19]; MCF-7 cells): 30 nM; GI50 ([21]; PANC-1 cells): 80 nM
C=C1NC(=O)c2nc(ccc2F)CNC(=O)C[C@@H](/C=C/CCSC(C)=O)OC(=O)[C@H](C)NC1=O [Compound 90]	49 nM	30 nM	83 nM	80 nM	94 nM	30 nM	40 nM	36 nM	30 nM	50 nM	49 nM	34 nM	53 nM	40 nM	24 nM	90 nM	34 nM	20 nM	94 nM	no activity	GI50 [21]: 90 nM

Reference: patent publication US10065990B2, “Cyclic peptide compound, and preparation method, pharmaceutical composition and use thereof” (HANGZHOU GUANYU BIO-MEDICAL CO., LTD, priority 2013, dated 2018)
